Reference: ChEMBL document CHEMBL1201862, “PubChem BioAssay data set” (2004)
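In this assay, cells in 96-well plates receive the compound at five concentrations for 48 hours. Endpoints are linearly interpolated between the surrounding concentrations. GI50 = concentration required for 50% inhibition of growth.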 Calls of active or inactive are those of the source. Rule as the data show it: active = GI50 up to about 1.1 µM and inactive = higher.

Columns and labels:
Assay in all cases: growth of human tumour cells (NCI), 48 h
[1] = system: SNB-19
[2] = system: UO-31
[3] = system: SF-268
[4] = system: A549
[5] = system: UACC-62
[6] = system: DMS-273
[7] = system: NCI-H460
[8] = system: TK-10
[9] = system: HOP-62
[10] = system: A498
[11] = system: SNB-78
[12] = system: RPMI-8226
[13] = system: SF-539
[14] = system: CAKI-1
[15] = system: UACC-257
[16] = system: OVCAR-5
[17] = system: OVCAR-3
[18] = system: SK-MEL-28
[19] = system: OVCAR-4
[20] = system: XF498
[21] = system: U-251
[22] = system: CCRF-CEM
[23] = system: 786-0
[24] = system: SNB-75
[25] = system: ACHN
[26] = system: OVCAR-8
[27] = system: RXF 631
[28] = system: SK-MEL-5
[29] = system: Malme-3M
[30] = system: RXF 393
[31] = system: SF-295
[32] = system: DLD-1
[33] = system: HCT-15
[34] = system: IGROV-1
[35] = system: SN12C
[36] = system: M14
[37] = system: LXFL 529
[38] = system: SW-620
[39] = system: HL-60
[40] = system: MOLT-4
[41] = system: HOP-92
[42] = system: NCI-H522
[43] = system: HT-29
[44] = system: NCI-H23
[45] = system: K562
[46] = system: HCC 2998
[47] = system: HCT-116
[48] = system: LOX IMVI
[49] = system: KM12
[50] = system: EKVX
[51] = system: SK-MEL-2
[52] = system: COLO 205
[53] = system: DMS-114
[54] = system: SK-OV-3
[55] = system: M19-MEL
[56] = system: SR
[57] = system: NCI-H226
[58] = system: KM-20L2
[59] = system: HOP-18

In the case of CC12CCCCC1C(=O)C2(Cl)Cl (stereo not drawn), the GI50 [1] is reported as 3.31 µM (inactive), the GI50 [2] is reported as 2.18 µM (inactive) and the GI50 [3] is reported as 2.7 µM (inactive). The GI50 [4] was 3.18 µM (inactive), the GI50 [5] was 2.2 µM (inactive) and the GI50 [6] was 2.21 µM (inactive). For the same molecule, the GI50 [7] was 2.28 µM (inactive), the GI50 [8] was 3.85 µM (inactive) and the GI50 [9] was 1.6 µM (inactive). For the same molecule, the GI50 [10] was 3.94 µM (inactive), the GI50 [11] was 4.44 µM (inactive) and the GI50 [12] was 1.31 µM (inactive). The GI50 [13] was 2.17 µM (inactive), the GI50 [14] was 2.15 µM (inactive) and the GI50 [15] was 2.06 µM (inactive). For the same molecule, the GI50 [16] was 2.56 µM (inactive), the GI50 [17] was 1.77 µM (inactive) and the GI50 [18] was 1.8 µM (inactive). For the same molecule, the GI50 [19] was 3.49 µM (inactive), the GI50 [20] was 2.07 µM (inactive) and the GI50 [21] was 2.21 µM (inactive). The GI50 [22] was 1.42 µM (inactive), the GI50 [23] was 1.83 µM (inactive) and the GI50 [24] was 3.34 µM (inactive). For the same molecule, the GI50 [25] was 2.51 µM (inactive), the GI50 [26] was 2.04 µM (inactive) and the GI50 [27] was 1.92 µM (inactive). For the same molecule, the GI50 [28] was 1.83 µM (inactive), the GI50 [29] was 1.4 µM (inactive) and the GI50 [30] was 3.72 µM (inactive). For the same molecule, the GI50 [31] was 1.66 µM (inactive), the GI50 [32] was 1.97 µM (inactive) and the GI50 [33] was 3.35 µM. For the same molecule, the GI50 [34] was 2.96 µM (inactive), the GI50 [35] was 2.98 µM (inactive) and the GI50 [36] was 2.03 µM (inactive). The GI50 [37] was 2.28 µM (inactive), the GI50 [38] was 2.05 µM (inactive) and the GI50 [39] was 1.76 µM (inactive). The GI50 [40] was 1.84 µM (inactive), the GI50 [41] was 1.69 µM (inactive) and the GI50 [42] was 1.89 µM (inactive). For the same molecule, the GI50 [43] was 1.3 µM (inactive), the GI50 [44] was 2.39 µM (inactive) and the GI50 [45] was 1.83 µM (inactive). The GI50 [46] was 1.79 µM (inactive), the GI50 [47] was 1.69 µM (inactive) and the GI50 [48] was 2.64 µM (inactive). The GI50 [49] was 1.79 µM (inactive), the GI50 [50] was 2.76 µM (inactive) and the GI50 [51] was 1.95 µM (inactive).

For C=CCC1=C2CCCCC2CCC1=O (stereo not drawn), the GI50 [1] was > 100 µM (inactive), the GI50 [2] was > 100 µM (inactive) and the GI50 [3] was > 100 µM (inactive). The GI50 [4] was > 100 µM (inactive), the GI50 [5] was > 100 µM (inactive) and the GI50 [6] was > 100 µM (inactive). The GI50 [7] was > 100 µM (inactive), the GI50 [8] was > 100 µM (inactive) and the GI50 [9] was > 100 µM (inactive). For the same molecule, the GI50 [52] was > 100 µM (inactive), the GI50 [53] was > 100 µM (inactive) and the GI50 [10] was > 100 µM (inactive). The GI50 [11] was > 100 µM (inactive), the GI50 [12] was > 100 µM (inactive) and the GI50 [13] was > 100 µM (inactive). The GI50 [14] was > 100 µM (inactive), the GI50 [15] was > 100 µM (inactive) and the GI50 [16] was > 100 µM (inactive). For the same molecule, the GI50 [17] was > 100 µM (inactive), the GI50 [18] was > 100 µM (inactive) and the GI50 [54] was > 100 µM (inactive). The GI50 [19] was > 100 µM (inactive), the GI50 [20] was > 100 µM (inactive) and the GI50 [21] was > 100 µM (inactive). The GI50 [22] was > 100 µM (inactive), the GI50 [23] was > 100 µM (inactive) and the GI50 [24] was > 100 µM (inactive). For the same molecule, the GI50 [25] was > 100 µM (inactive), the GI50 [26] was > 100 µM (inactive) and the GI50 [27] was > 100 µM (inactive). For the same molecule, the GI50 [28] was > 100 µM (inactive), the GI50 [29] was > 100 µM (inactive) and the GI50 [55] was > 100 µM (inactive). The GI50 [30] was > 100 µM (inactive), the GI50 [31] was > 100 µM (inactive) and the GI50 [32] was > 100 µM (inactive). The GI50 [33] was greater than 100 µM, the GI50 [34] was > 100 µM (inactive) and the GI50 [35] was > 100 µM (inactive). For the same molecule, the GI50 [36] was > 100 µM (inactive), the GI50 [37] was > 100 µM (inactive) and the GI50 [38] was > 100 µM (inactive). The GI50 [39] was > 100 µM (inactive), the GI50 [40] was > 100 µM (inactive) and the GI50 [42] was > 100 µM (inactive). For the same molecule, the GI50 [44] was > 100 µM (inactive), the GI50 [45] was > 100 µM (inactive) and the GI50 [47] was > 100 µM (inactive). For the same molecule, the GI50 [48] was > 100 µM (inactive), the GI50 [49] was > 100 µM (inactive) and the GI50 [50] was > 100 µM (inactive). The GI50 [51] was > 100 µM (inactive).

CN1N=C2c3ccccc3OC(c3ccccc3)[C@H]2C1c1ccccc1 (stereo partly drawn) was tested, and the GI50 [1] was > 100 µM (inactive), the GI50 [2] was 61.1 µM (inactive) and the GI50 [3] was > 100 µM (inactive). The GI50 [4] was 72.9 µM (inactive), the GI50 [56] was > 100 µM (inactive) and the GI50 [5] was > 100 µM (inactive). The GI50 [6] was > 100 µM (inactive), the GI50 [7] was 97.1 µM (inactive) and the GI50 [8] was > 100 µM (inactive). For the same molecule, the GI50 [9] was 95.5 µM (inactive), the GI50 [52] was > 100 µM (inactive) and the GI50 [53] was 44.1 µM (inactive). The GI50 [10] was > 100 µM (inactive), the GI50 [11] was 26.4 µM (inactive) and the GI50 [12] was 89.7 µM (inactive). The GI50 [13] was > 100 µM (inactive), the GI50 [15] was 81.1 µM (inactive) and the GI50 [16] was > 100 µM (inactive). For the same molecule, the GI50 [57] was > 100 µM (inactive), the GI50 [17] was > 100 µM (inactive) and the GI50 [18] was > 100 µM (inactive). For the same molecule, the GI50 [54] was > 100 µM (inactive), the GI50 [19] was 85.1 µM (inactive) and the GI50 [20] was > 100 µM (inactive). For the same molecule, the GI50 [21] was > 100 µM (inactive), the GI50 [58] was 51.2 µM (inactive) and the GI50 [22] was 38.4 µM (inactive). The GI50 [23] was > 100 µM (inactive), the GI50 [25] was > 100 µM (inactive) and the GI50 [26] was > 100 µM (inactive). For the same molecule, the GI50 [29] was 22.2 µM (inactive), the GI50 [55] was > 100 µM (inactive) and the GI50 [30] was 28.2 µM (inactive). The GI50 [59] was > 100 µM (inactive), the GI50 [31] was 90.4 µM (inactive) and the GI50 [32] was 95.3 µM (inactive). The GI50 [33] was 75 µM, the GI50 [34] was 90.8 µM (inactive) and the GI50 [35] was > 100 µM (inactive). For the same molecule, the GI50 [36] was > 100 µM (inactive), the GI50 [37] was 37.6 µM (inactive) and the GI50 [38] was > 100 µM (inactive). For the same molecule, the GI50 [39] was 37.3 µM (inactive), the GI50 [40] was 35.2 µM (inactive) and the GI50 [41] was 32.7 µM (inactive). The GI50 [42] was 22.5 µM (inactive), the GI50 [43] was 42.1 µM (inactive) and the GI50 [44] was 79.4 µM (inactive). The GI50 [45] was 88.1 µM (inactive), the GI50 [46] was 56.1 µM (inactive) and the GI50 [47] was 29.7 µM (inactive). For the same molecule, the GI50 [48] was > 100 µM (inactive), the GI50 [49] was > 100 µM (inactive) and the GI50 [50] was > 100 µM (inactive). For the same molecule, the GI50 [51] was > 100 µM (inactive).
